From article PMC6268546, “A PAMPA Assay as Fast Predictive Model of Passive Human Skin Permeability of New Synthesized Corticosteroid C-21 Esters” (Molecules, 2012)

Legend:
[1] = approximate logKp (permeability coefficient through human skin) calculated from logPe by equation (1); conditions: logKp = 1.34 logPe + 0.28, from PAMPA logPe
Description: Ottaviani and coworkers predicted skin permeation of numerous compounds applying a new membrane (70% silicone oil and 30% IPM) in the PAMPA test and presented permeate classifications on the basis of available literature permeability coefficients through human skin, logKp.
The proposed equation for correlation between logKp and logPe for 31 investigated compounds was: […]

[2] = PAMPA test (skin permeability model); conditions: 70% silicone oil-30% IPM membrane, 7 h incubation, 100 μM in 5% DMSO phosphate buffer pH 7, triplicate mean
Description: The study was performed in triplicate and the results are presented as mean values. After the PAMPA tests was performed, a HPLC method was used to measure the concentrations of the investigated corticosteroids: the initial concentration–CD(0) in the starting solution, the residual concentration–CD(t) in the donor compartment (7 h after incubation) and the transferred concentration–CA(t) in the acceptor compartment (7 h after incubation). The assay was performed using the previously described HPLC method with mobile phase modification for determination of standard corticosteroids. The mobile phase modification was introduced to achieve complete separation standard corticosteroids peak from DMSO peak, which was used as cosolvent. DMSO was used as cosolvent with the aim of increasing the corticosteroid C-21 esters’ solubility. DMSO is one of the earliest and most widely studied penetration enhancers for transdermal drug delivery systems.
On the basis of the initial (100 μM) and calculated residual and transferred concentrations according to peak area comparison at zero time t0, the retention factors–R and permeability coefficients–logPe of investigated corticosteroids were obtained.
Phosphate buffer (pH = 7) was prepared by dissolving NaH2PO4·H2O (1.167 g) and Na2HPO4·7H2O (3.093 g) in water (1000 mL) with the fixed total concentration of 20 mM. The 5% DMSO solution were prepared dissolving DMSO in phosphate buffer. The corticosteroid solutions were prepared dissolving the investigated corticosteroid standards as well as new synthesized corticosteroid C-21 esters in 5% DMSO solution. […] An aliquot of previously prepared mixture (3.5 mL, 7 mL silicone oil and 3 mL IPM) was transferred into a 10 mL volumetric flask, dissolved and fill up to mark with n-hexane.
Permeation experiments were carried out in hydrophobic PVDF 96-well filter plates (Millipore, Molsheim, France). […] Next, in each well of acceptor plate, 5% DMSO solution (400 μL) was transferred with an automatic pipette and covered by the donor plate, creating a PAMPA sandwich. In each well of the donor plate solutions of the tested corticosteroid in 5% DMSO solution (100 μM, 300 μL) was transferred by the use of an automatic pipette. Each substance was measured in triplicate at iso-pH conditions (the same pH value in donor and receptor compartment). The donor plate was covered to prevent evaporation and the whole system set up to interact with the vibratory mixer. After 7 h, PAMPA sandwich was removed from the mixer and vibration, and using the HPLC method the concentration of the investigated substances in the donor and receptor compartments were determined. The HPLC method used was as previously described but with some necessary modifications. A mobile phase of methanol–water (75:25 v/v) was used for analysis of corticosteroid C-21 esters, while the mobile phase methanol–water (50:50 v/v) was used for the analysis of unesterified corticosteroids to increase their retention time and prevent overlapping with the DMSO peak. Other HPLC parameters were as previously described. The concentrations of each tested corticosteroid in the appropriate time interval in the donor and acceptor compartments were calculated using the method of comparing the peak area of the initial concentration at zero time t0.
The values of permeability coefficients–logPe and retention factors–R of examined corticosteroids were calculated using equations (2) and (3). The retention factor, R can be defined as the mole fraction retained in the membrane and in the microplates (i.e., filters and plate materials): [drawing 1] (2) where CA(t)/CD(0) represents the amount of compound that reached the acceptor compartment after incubation time t (for VA = VD): […]

[3] = set-up: method as in PMID 16789751; conditions: 70% silicone-30% IPM membrane, 7 h; cited from earlier work

logKp (approximate, calculated) [1]: −7.75
permeation parameter CA(t)/CD(0) [2]: 1.3 ± 0.8%
retention factor R (membrane retention) [2]: 4.2 ± 2.0%
SMILES: C[C@@H]1C[C@H]2[C@@H]3CCC4=CC(=O)C=C[C@]4(C)[C@@]3(F)[C@@H](O)C[C@]2(C)[C@@]1(O)C(=O)CO [DEX, dexamethasone, reference compound]
logPe previously reported [3]: −5.75
